The record followed here is patent US12570659B2, “Bicyclic heteroaryl compounds useful as IRAK4 inhibitors” (BRISTOL-MYERS SQUIBB COMPANY, priority 2019, dated 2026).

What is called IC50 is the concentration that inhibits the measured activity by half.

A value given as a limit tells only on which side of the number the result lay.

One assay has as its target IRAK4 (Homo sapiens (Human), UniProt Q9NWZ3). Description: IRAK4 Inhibition Assay. Format: biochemical. Conditions: ATP 500 μM; IRAK4 0.6 nM; 60 min room temperature. An outline of the steps:
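Phosphorylated and unphosphorylated fluorescent substrate were resolved by microfluidic electrophoresis after termination with 35 mM EDTA. The room-temperature kinase reaction lasted 60 min after IRAK4, substrates and test compound were combined; vehicle-only defined 0% and no-enzyme 100% inhibition.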

Another assay deals with JAK3 kinase (Homo sapiens (Human), UniProt P52333). Description: JAK3 Homogeneous Time Resolved Fluorescence (HTRF) Assay. To be noted: for IC50: competition binding with fluorescein-labeled ATP competitive probe; for Ratio of JAK3 IC50 to IRAK4 IC50: selectivity for IRAK4 over JAK3. Format: binding. In outline:
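IC50 reflects displacement of a fluorescein-labeled ATP-site probe (at its Kd) from 1 nM tagged JAK3, detected via 0.2 nM Tb anti-His or anti-GST antibody. One-hour incubation; 495 and 520 nm emission ratios, background-subtracted, normalized to maximum signal; 11-point percent inhibition, 4-parameter logistic.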
In general terms: In TR-FRET formats the signal depends on donor and acceptor labels being close together.

Assay [1] deals with TLR2 agonist-stimulated IL-6 in human whole blood. Description: IRAK4 Whole Blood Assay. Conditions: lipoteichoic acid 10 μg/mL, 5 hours, IL-6 levels. Format: cell-based. As for the experimental part: Human whole blood containing the anti-coagulant ACD-A was plated in 384-well plate (25 μL/well) and incubated with compounds for 60 minutes at 37° C. in a 5% CO2 incubator. The blood was stimulated with a TLR2 agonist, 10 μg/mL final concentration of lipoteichoic acid (Invivogen, San Diego, CA) in 25 μL RPMI (Gibco) for 5 hours in a 5% CO2 incubator. At the end of the incubation, plates were centrifuged at 2300 rpm for 5 minutes. Supernatants were harvested and analyzed for IL-6 levels by Flow Cytometry beads assay (BD Biosciences, San Jose, CA).

IRAK4, sequence (Q9NWZ3 whole entry, species assumed): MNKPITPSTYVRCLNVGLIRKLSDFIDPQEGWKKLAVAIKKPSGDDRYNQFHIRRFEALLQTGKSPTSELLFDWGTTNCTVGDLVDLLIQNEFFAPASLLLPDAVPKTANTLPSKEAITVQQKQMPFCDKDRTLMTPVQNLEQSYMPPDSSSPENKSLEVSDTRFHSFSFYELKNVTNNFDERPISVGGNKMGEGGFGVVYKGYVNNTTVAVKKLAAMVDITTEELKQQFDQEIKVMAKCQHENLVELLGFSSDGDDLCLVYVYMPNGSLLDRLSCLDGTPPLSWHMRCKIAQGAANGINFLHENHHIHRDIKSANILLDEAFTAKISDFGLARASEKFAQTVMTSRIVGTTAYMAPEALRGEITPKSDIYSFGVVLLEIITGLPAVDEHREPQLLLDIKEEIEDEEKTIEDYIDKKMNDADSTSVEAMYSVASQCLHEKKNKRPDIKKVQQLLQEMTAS
JAK3 kinase, sequence (P52333 whole entry): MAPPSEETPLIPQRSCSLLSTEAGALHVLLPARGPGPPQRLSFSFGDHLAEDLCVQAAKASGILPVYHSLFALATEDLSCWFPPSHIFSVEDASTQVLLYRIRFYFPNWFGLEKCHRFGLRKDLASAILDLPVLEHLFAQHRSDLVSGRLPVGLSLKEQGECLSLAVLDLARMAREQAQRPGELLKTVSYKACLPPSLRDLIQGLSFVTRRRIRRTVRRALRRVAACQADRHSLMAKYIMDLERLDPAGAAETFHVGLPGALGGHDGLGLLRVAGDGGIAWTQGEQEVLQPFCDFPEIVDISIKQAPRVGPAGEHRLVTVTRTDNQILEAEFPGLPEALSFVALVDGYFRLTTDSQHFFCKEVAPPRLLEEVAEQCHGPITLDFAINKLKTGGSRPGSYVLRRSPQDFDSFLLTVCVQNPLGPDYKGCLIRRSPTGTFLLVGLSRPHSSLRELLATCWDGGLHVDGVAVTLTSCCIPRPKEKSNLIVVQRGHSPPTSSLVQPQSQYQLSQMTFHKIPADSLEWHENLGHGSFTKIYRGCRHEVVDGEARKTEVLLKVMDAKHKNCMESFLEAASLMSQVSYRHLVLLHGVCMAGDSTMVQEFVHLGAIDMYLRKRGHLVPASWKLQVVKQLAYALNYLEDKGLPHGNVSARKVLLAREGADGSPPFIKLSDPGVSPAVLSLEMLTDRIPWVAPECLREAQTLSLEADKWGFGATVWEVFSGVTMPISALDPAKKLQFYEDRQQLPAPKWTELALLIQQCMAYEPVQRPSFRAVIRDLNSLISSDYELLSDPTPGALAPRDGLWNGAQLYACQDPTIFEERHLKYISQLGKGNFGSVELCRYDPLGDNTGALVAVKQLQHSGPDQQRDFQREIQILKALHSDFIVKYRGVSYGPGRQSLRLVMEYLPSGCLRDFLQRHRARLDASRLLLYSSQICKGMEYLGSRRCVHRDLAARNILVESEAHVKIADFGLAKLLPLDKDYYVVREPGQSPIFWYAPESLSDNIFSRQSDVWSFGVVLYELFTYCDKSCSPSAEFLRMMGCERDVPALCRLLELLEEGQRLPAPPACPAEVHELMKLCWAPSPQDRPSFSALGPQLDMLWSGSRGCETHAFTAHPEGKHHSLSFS

Turning to `CC(C)Nc1c(C(=O)NCCC(C)(C)O)cnn2cc(-c3ccncc3)cc12` [Example 62, N-(3-hydroxy-3-methylbutyl)-4-(isopropylamino)-6-(pyridin-4-yl)pyrrolo[1,2-b]pyridazine-3-carboxamide], the IC50 on IRAK4 is 8.4 nM; at JAK3 kinase, greater than 50 µM; in assay [1] it was 2010 nM. For the same compound, on JAK3 kinase, the “Ratio of JAK3 IC50 to IRAK4 IC50” value is given as greater than 5952.

As to `CC(=O)N[C@H]1CC[C@H](NC(=O)c2cnn3cc(-c4ccncc4C)cc3c2NC(C)C)CC1` [Example 56, N-((1r,4r)-4-acetamidocyclohexyl)-4-(isopropylamino)-6-(3-methylpyridin-4-yl)pyrrolo[1,2-b]pyridazine-3-carboxamide], the IC50 at IRAK4 was 1.6 nM; at JAK3 kinase, greater than 50 µM; in assay [1], 810 nM. Moreover, the “Ratio of JAK3 IC50 to IRAK4 IC50” value at JAK3 kinase is reported as greater than 31250.

As for `CC(C)Nc1c(C(=O)NC[C@@H](F)C(C)(C)O)cnn2cc(-c3ccncc3)cc12` [Example 5, (R)—N-(2-fluoro-3-hydroxy-3-methylbutyl)-4-(isopropylamino)-6-(pyridin-4-yl)pyrrolo[1,2-b]pyridazine-3-carboxamide], the IC50 at IRAK4 was determined as 9.2 nM; at JAK3 kinase, 29 µM; in assay [1], 4600 nM. Also, the “Ratio of JAK3 IC50 to IRAK4 IC50” value on JAK3 kinase amounted to 3152.

Turning to `CC(C)Nc1c(C(=O)N[C@H]2CC[C@H](c3nc[nH]n3)CC2)cnn2cc(-c3ccncc3)cc12` [Example 90, N-((1r,4r)-4-(1H-1,2,4-triazol-3-yl)cyclohexyl)-4-(isopropylamino)-6-(pyridin-4-yl)pyrrolo[1,2-b]pyridazine-3-carboxamide], the IC50 at IRAK4 was determined as 3.7 nM; at JAK3 kinase, 10 µM; in assay [1], 630 nM. Further, the “Ratio of JAK3 IC50 to IRAK4 IC50” value at JAK3 kinase was determined as 2703.

For `CC(C)Nc1c(C(=O)N[C@H]2CC[C@H](N)CC2)cnn2cc(-c3ccncc3)cc12` [Example 54, N-((1r,4r)-4-aminocyclohexyl)-4-(isopropylamino)-6-(pyridin-4-yl)pyrrolo[1,2-b]pyridazine-3-carboxamide], the IC50 on IRAK4 is 9.1 nM; on JAK3 kinase, greater than 50 µM; in assay [1] it was 1220 nM. For the same compound, the “Ratio of JAK3 IC50 to IRAK4 IC50” value at JAK3 kinase is listed as greater than 5495.

Take `CC(C)Nc1c(C(=O)NCCC(C)(C)O)cnn2cc(-c3ccncc3F)nc12` [Example 109, 2-(3-fluoropyridin-4-yl)-N-(3-hydroxy-3-methylbutyl)-8-(isopropylamino)imidazo[1,2-b]pyridazine-7-carboxamide]: the results for the half-inhibitory concentration (IC50) (at IRAK4; at JAK3 kinase; in assay [1]) were 12 nM, greater than 50 µM and greater than 20000 nM, respectively. Further, the “Ratio of JAK3 IC50 to IRAK4 IC50” value on JAK3 kinase is listed as greater than 4167.

As for `CC(C)Nc1c(C(=O)NCCN2CCOCC2)cnn2cc(-c3ccncc3)cc12` [Example 63, 4-(isopropylamino)-N-(2-morpholinoethyl)-6-(pyridin-4-yl) pyrrolo[1,2-b]pyridazine-3-carboxamide], the IC50 was 12 nM on IRAK4, greater than 50 µM at JAK3 kinase and 2000 nM in assay [1]. For the same compound, the “Ratio of JAK3 IC50 to IRAK4 IC50” value on JAK3 kinase is greater than 4167.

As for `CC(=O)N[C@H]1CC[C@H](NC(=O)c2cnn3cc(-c4cccnc4F)cc3c2NC(C)C)CC1` [Example 69, N-((1r,4r)-4-acetamidocyclohexyl)-6-(2-fluoropyridin-3-yl)-4-(isopropylamino)pyrrolo[1,2-b]pyridazine-3-carboxamide], the IC50 is 9.2 nM at IRAK4, roughly 42 µM on JAK3 kinase and 7010 nM in assay [1]. The “Ratio of JAK3 IC50 to IRAK4 IC50” value at JAK3 kinase is given as roughly 4565.
